The values below come from US20250154143A1, “PRODRUGS FOR USE IN THE TREATMENT OF TISSUE DAMAGE” (UCL BUSINESS LTD, priority 2021, published 2025).

Molecules are shown by their SMILES. ≈ marks a conversion by molar mass, not a printed value. Counter-ions that a name gives are not always drawn.

A short description of data set [1]: Thermodynamic solubility in PBS, FaSSIF and SGF. It is filed as physicochemical. The conditions noted are these: thermodynamic from solid, room temperature. How it is done: A known quantity of the Examples and control compounds were weighed into a suitable vessel (whatman miniuniprep vials) and a known volume of the required media was added (e.g. Simulated Gastric Fluid pH 1.2 [SGF], Simulated Fasted State Intestinal Fluid pH 6.5 [FaSSIF] or Phosphate Buffered Saline pH 7.4 [PBS]). The samples were subjected to vortex mixing for 2 minutes followed by agitation on a shaker for 24 hours at room temperature at 800 rpm. The samples were then centrifuged for 20 minutes at 4000 rpm, the miniuniprep vials compressed and the filtrates analysed by HPLC (Waters Xbridge C18 4.6×100 mm, mobile phase A: 0.1% TFA in water, mobile phase B: 0.1% TFA in acetonitrile).

Data set [2] in a line: Stability in FaSSIF, SGF and PBS. It is filed as physicochemical. The note with it: 37° C. The protocol:
10 μL of a 10 mM stock solution of the Examples were dissolved in 490 μL DMSO to afford […] working solution
Dissolve 0.04 g NaCl and 0.064 g pepsin in 0.14 mL HCl and add sufficient water to 20 mL volume. The pH of the test solution was 1.20±0.05.
0.056% (w/v) lecithin, 0.161% (w/v) sodium taurocholate, 0.39% (w/v) monobasic potassium phosphate, 0.77% (w/v) potassium chloride, deionized H2O. The pH of the test solution was 6.5±0.05.
30 mL of 10×PBS (pH7.4) was added into a 50 mL flask and diluted with water. The solution was mixed well and adjusted to pH 7.4 with 1N HCl.
Protocol for Determining Stability 2 μL of the 200 μL working solution of the Examples was added into 96-deep-well plates for T0, T60, T120, T360 and T1440 timepoints. Duplicates were prepared.
Stability studies were commenced by the addition of 198 μL of the required media (e.g. Simulated Gastric Fluid pH 1.2 [SGF], Simulated Fasted State Intestinal Fluid pH 6.5 [FaSSIF]) and Phosphate Buffered Saline pH 7.4 [PBS]) to each well except T0. The samples were incubated at 37° C. at 600 rpm for the appointed time. The samples at the corresponding timepoint were removed and immediately mixed with 400 μL of 0.3% FA in MeCN containing 200 ng/mL tolbutamide and labetalol (internal standard). 200 μL of suspension was removed and mixed with 400 μL of 0.3% FA in cold MeCN containing 200 ng/mL tolbutamide and labetalol. The samples were centrifuged at 4000 rpm at 4° C. for 20 minutes. 60 μL of the supernatant was removed and mixed with 180 μL purified water and thoroughly mixed and analysed by LCMS (Shimadzu LC 30-AD, ACQUITY UPLC HSS T3 1.8 um 2.1*50 mm Part No. 186003538, with mobile phase A: 0.1% formic acid in water, mobile phase B: 0.1% formic acid in MeCN. Formation of parent was also monitored as a metabolite.
Samples were analysed by Mass Spectrometry QTRAP 6500+

The next data set deals with T1, human CRP (Homo sapiens, UniProt P02741).
T1 construct: The final concentrations were 0.73 μM native pentameric CRP; from tissue
T1 sequence (P02741 19-224): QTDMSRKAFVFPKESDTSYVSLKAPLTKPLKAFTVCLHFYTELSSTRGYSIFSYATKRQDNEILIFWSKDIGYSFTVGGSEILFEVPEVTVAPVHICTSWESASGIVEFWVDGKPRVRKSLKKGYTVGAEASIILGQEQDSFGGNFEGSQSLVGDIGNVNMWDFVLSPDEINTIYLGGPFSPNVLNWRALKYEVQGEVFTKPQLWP
The conditions noted are these: rat acute myocardial infarction model, rats receiving human CRP; cited from earlier work.

Where [3] appears, read: Phosphate Buffered Saline (PBS), aqueous buffer, PBS pH 7.4, 24 hour timepoint.
The mark [4] stands for this setting: Simulated Fasted State Intestinal Fluid (FaSSIF), FaSSIF pH 6.5, 24 hour timepoint.
Where [5] appears, read: Simulated Gastric Fluid (SGF), simulated gastric fluid, SGF pH 1.2, 24 hour timepoint.

Regarding `O=C(N[C@@H](C(=O)O)C1CN2CCC1CC2)c1ccc(C(=O)N[C@@H](C(=O)O)C2CN3CCC2CC3)cc1` (stereo partly drawn) [APL-2191.2HCl, (R,2R,2′R)-2,2′-(terephthaloylbis(azanediyl))bis(2-((R)-quinuclidin-3-yl)acetic acid) bis hydrochloride salt], the solubility (thermodynamic) at 24 h in data set [1] (setting [3]) was 1690 µg/mL; in data set [1] (setting [4]), 2510 µg/mL; in data set [1] (setting [5]) it was 4560 µg/mL.
Consider `CC(C)OC(=O)[C@H](NC(=O)c1ccc(C(=O)N[C@@H](C(=O)OC(C)C)C2CN3CCC2CC3)cc1)C1CN2CCC1CC2` (stereo partly drawn) [Example 13, (R,2R,2′R)-2,2′-(terephthaloylbis(azanediyl))bis(2-((R)-quinuclidin-3-yl)acetic acid) bis isopropyl ester], for which the “FaSSIF (pH 6.5) % remaining” value in data set [2] (FaSSIF pH 6.5, 6 hr) came out at 99.7%; in data set [2] (FaSSIF pH 6.5, 24 h), 110.4%. Further, the “PBS (pH 7.4) % remaining” value is 103.43% in data set [2] (PBS pH 7.4, 6 h) and 104.61% in data set [2] (PBS pH 7.4, 24 h). The “SGF (pH 1.2) % remaining” value in data set [2] (SGF pH 1.2, 6 h) is reported as 107.2%; in data set [2] (SGF pH 1.2, 24 h) it was 100.0%. Besides, the solubility (thermodynamic) at 24 h in data set [1] (setting [3]) was 4560 µg/mL (≈ 7.83 mM); in data set [1] (setting [4]), 5200 µg/mL (≈ 8.93 mM); in data set [1] (setting [5]), 5140 µg/mL (≈ 8.82 mM).
As to `CCOC(=O)[C@H](NC(=O)c1ccc(C(=O)N[C@@H](C(=O)OCC)C2CN3CCC2CC3)cc1)C1CN2CCC1CC2` (stereo partly drawn) [Example 12, (R,2R,2′R)-2,2′-(terephthaloylbis(azanediyl))bis(2-((R)-quinuclidin-3-yl)acetic acid) bis ethyl ester], the “FaSSIF (pH 6.5) % remaining” value in data set [2] (FaSSIF pH 6.5, 6 hr) is reported as 105.0%; in data set [2] (FaSSIF pH 6.5, 24 h) it was 95.2%. Moreover, the “PBS (pH 7.4) % remaining” value in data set [2] (PBS pH 7.4, 6 h) was determined as 84.33%; in data set [2] (PBS pH 7.4, 24 h), 87.14%. For the same molecule, the “SGF (pH 1.2) % remaining” value in data set [2] (SGF pH 1.2, 6 h) is listed as 101.2%; in data set [2] (SGF pH 1.2, 24 h) it was 92.3%. The thermodynamic solubility at 24 h in data set [1] (setting [3]) was 5520 µg/mL (≈ 9.94 mM); in data set [1] (setting [4]), 4540 µg/mL (≈ 8.18 mM); in data set [1] (setting [5]), 4000 µg/mL (≈ 7.22 mM).
In the case of `COC(=O)[C@H](NC(=O)c1ccc(C(=O)N[C@@H](C(=O)OC)C2CN3CCC2CC3)cc1)C1CN2CCC1CC2` (stereo partly drawn) [Example 1, (R,2R,2′R)-2,2′-(terephthaloylbis(azanediyl))bis(2-((R)-quinuclidin-3-yl)acetic acid) bis methyl ester], the “FaSSIF (pH 6.5) % remaining” value is 98.3% in data set [2] (FaSSIF pH 6.5, 6 hr) and 113.3% in data set [2] (FaSSIF pH 6.5, 24 h). The “PBS (pH 7.4) % remaining” value in data set [2] (PBS pH 7.4, 6 h) was determined as 84.07%; in data set [2] (PBS pH 7.4, 24 h) it was 55.89%. Moreover, the “SGF (pH 1.2) % remaining” value in data set [2] (SGF pH 1.2, 6 h) is given as 101.2%; in data set [2] (SGF pH 1.2, 24 h) it was 92.6%. Further, the thermodynamic solubility at 24 h in data set [1] (setting [3]) is 1220 µg/mL (≈ 2.31 mM); in data set [1] (setting [4]), 4690 µg/mL (≈ 8.9 mM); in data set [1] (setting [5]), 5930 µg/mL (≈ 11.3 mM).
With `C[N+](C)(C)CCOP(=O)(O)OCCCCCCCCOP(=O)(O)OCC[N+](C)(C)C` [BPC8, bis(phosphocholine)octane], at human CRP, the “Effect on adverse effects of human CRP” value is reported as “completely abrogate the adverse effects of human CRP”.
With `C[N+](C)(C)CCOP(=O)([O-])OCCCCCCOP(=O)([O-])OCC[N+](C)(C)C` [BPC6, bis(phosphocholine)hexane], the “Effect on adverse effects of human CRP” value on human CRP was “completely abrogate the adverse effects of human CRP”.
